Data published in US4735953A, “Pharmaceutical preparation for learning stimulation and memory improvement” (priority 1986, dated 1988).
Counter-ions that a name gives are not always drawn.

Experiments:
[1] = system: cerebral cortex of rabbits; assay: Asymmetry factor by induced potential in the hearing zone of the cerebral cortex; type: in vivo, rabbit
Description: (§1) In the third series of experiments the effect of the preparation according to the present invention on the functional brain asymmetry was studied. The experiments were carried out on rabbits with electrodes implanted in the brain. The electrodes under nembutal narcosis (40 mg/kg) were implanted strictly symmetrically into the bearing zone of the temporal cortex of the right and left hemispheres on its lateral surface, whereas the indifferent electrode was secured to the nasal bones of a rabbit's skull. The acoustic irritation was applied through earphones. As the acoustic irritation a sound click caused by a square-shaped pulse from an electronic stimulator with a frequency of 0.1-0.2 Hz was used; the click intensity was adjusted within the range of from 5 to 80 Db. The amplification of the taken-off biopotentials was effected on an electroencephalograph; the induced potentials were obtained by means of an analyzer. 100 experiments on 20 animals were thus conducted; the interval between experiments on one animal was 7 days. The amplitude and form of the induced potential were determined. The asymmetry factor (Kas) was calculated by the formula: [formula] Ar --amplitude of the induced potential of the […] hemisphere, μV;
(§2) A1 --amplitude of the induced potential of the left hemisphere.
(§3) The test preparations were administered hypodermally in the form of 0.5-1.5% aqueous solutions 20 minutes before the beginning of the measurements.

[2] = system: rabbit's brain hemispheres; assay: Amplitude of induced potential in brain hemispheres (acoustic irritation); type: in vivo; conditions: rabbits
Description: as §1, §2, §3

[3] = system: learning ability of mice in a shuttle chamber; assay: Learning ability of mice in a shuttle chamber; type: in vivo, mouse; conditions: mice
[4] = system: learning ability of rats in a shuttle chamber; assay: Active avoidance learning in a shuttle chamber, rats; type: in vivo, rat; conditions: rats
Excerpt: (§4) In these experiments rats are taught to avoid an electric shock by escaping into a next chamber communicating with the first chamber by means of a special opening--a door. An electric current is applied to the chamber door consisting of metal plates. A conditional irritator is a light signal together with a sound click. The learning series consisted of 50 combinations. The number of combinations necessary for the animal's learning to escape into another chamber in response to the conditional signal was determined. Five correct responses out of 6 where regarded as the proof of stability of the acquired knowledge and were denoted as a "learning criterion". After 7 days the educational procedure was repeated, and again the number of combinations necessary to acquire the "learning criterion" was determined. In the case of difference between the first and second readings the percentage of retention of the acquired knowledge was calculated.
(§5) In this experiment the effect of the preparation according to the present invention and prior art preparations was separately evaluated for the purpose of comparison on well-learning and on specially selected poorly learning rats. […] To the poorly learning rats the animals were assigned which reached no "learning criterion" in the teaching series of 50 combinations, or, in other words, a stable knowledge of active avoidance was not worked out in them. […] The preparation according to the present invention and the prior art comparison preparations were administered before the first teaching series or thereafter.
(§6) Also studied were the effects produced upon a single and repeated administration of the preparation according to the present invention for 14 days.

[5] = system: learning ability of rats preliminarily sorted out for poor learning ability; assay: Active avoidance learning in a shuttle chamber, rats sorted out for poor learning ability; type: in vivo, rat; conditions: poorly learning rats
Excerpt: as §4, §5, §6

[6] = hypodermally 1 mg/kg, 12 day (retention)
[7] = hypodermally 3 mg/kg, 12 day (retention)
[8] = hypodermally 30 mg/kg, 12 day (retention)
[9] = hypodermally 100 mg/kg, 1st day
[10] = hypodermally 100 mg/kg, 12 day (retention)
[11] = hypodermally 300 mg/kg, 1st day
[12] = hypodermally 300 mg/kg, 12 day (retention)
[13] = per os 300 mg/kg, 12 day (retention)
[14] = hypodermally 0.03 mg/kg, 1st day
[15] = hypodermally 0.03 mg/kg, 12 day (retention)
[16] = hypodermally 0.1 mg/kg, 1st day
[17] = hypodermally 0.1 mg/kg, 12 day (retention)

## Nc1ccncc1 [4-aminopyridine]
[1]
  asymmetry factor (in words): did not change or reduced the factor of asymmetry
[1]; hypodermally 2 mg/kg, control 0.26 ± 0.06
  Asymmetry factor, Preparation: 0.12 ± 0.02
[2]
  amplitude of induced potentials (in words): increased amplitude of the induced potential
[2]; hypodermally 2 mg/kg
  Change of amplitude of induced potential, % of the control, left hemisphere: 140%
  Change of amplitude of induced potential, % of the control, right hemisphere: 175%
  Mean value of amplitude of induced potential, %: 160%
[3]
  retention of the knowledge of active avoidance (in words): does not affect the retention of the knowledge of active avoidance
  teaching (in words): facilitates teaching
[3]; hypodermally 1 mg/kg, 1st day
  % of avoidance reactions, group I: 17%
  % of avoidance reactions, group II: 21%
  % of avoidance reactions, group III: 38%
  % of avoidance reactions, group IV: 51%
  % of avoidance reactions, group V: 55%
  % of avoidance reactions, group VI: 60%
[3]; [6]
  % of avoidance reactions, group I: 48%
  % of avoidance reactions, group II: 70%
  % of avoidance reactions, group III: 72%
  % of avoidance reactions, group IV: 71%
  % of avoidance reactions, group V: 70%
  % of avoidance reactions, group VI: 75%
[3]; hypodermally 3 mg/kg, 1st day
  % of avoidance reactions, group I: 20%
  % of avoidance reactions, group II: 30%
  % of avoidance reactions, group III: 54%
  % of avoidance reactions, group IV: 61%
  % of avoidance reactions, group V: 79%
  % of avoidance reactions, group VI: 82%
[3]; [7]
  % of avoidance reactions, group I: 46%
  % of avoidance reactions, group II: 73%
  % of avoidance reactions, group III: 74%
  % of avoidance reactions, group IV: 74%
  % of avoidance reactions, group V: 80%
  % of avoidance reactions, group VI: 80%
[4]; hypodermally 2 mg/kg
  Number of combinations to reach the "learning criterion" in II teaching series (after 7 days): 7.4 ± 1.2
  Number of combinations to reach the "learning criterion" in the I teaching series: 17.8 ± 1.2
  Number of non-taught animals in the group: 0/20
  Percentage knowledge retention: 60%
[5]; hypodermally 2 mg/kg
  % of knowledge retention: 40.9%
  Number of combinations till appearance of "learning criterion", I teaching: 32.5 ± 2.8
  Number of combinations till appearance of "learning criterion", II-checking of retention of knowledge: 19.2 ± 1.7
  Number of untaught animals in the group: 11/20

## CC(C)(CO)[C@@H](O)C(=O)NCCCC(=O)O [Calcium homopantothenate, calcium salt of homopantothenic acid]
[3]; 100 mg/kg
  learning (in words): improving effect on learning only in a high dose
[3]; hypodermal vs per os
  effect of hypodermal vs per os administration (in words): substantially more pronounced effect than its per os administration
[3]; hypodermally 30 mg/kg, 1st day
  % of avoidance reactions, group I: 21%
  % of avoidance reactions, group II: 23%
  % of avoidance reactions, group III: 40%
  % of avoidance reactions, group IV: 55%
  % of avoidance reactions, group V: 58%
  % of avoidance reactions, group VI: 60%
[3]; [8]
  % of avoidance reactions, group I: 55%
  % of avoidance reactions, group II: 80%
  % of avoidance reactions, group III: 82%
  % of avoidance reactions, group IV: 85%
  % of avoidance reactions, group V: 84%
  % of avoidance reactions, group VI: 88%
[3]; [9]
  % of avoidance reactions, group I: 20%
  % of avoidance reactions, group II: 31%
  % of avoidance reactions, group III: 40%
  % of avoidance reactions, group IV: 55%
  % of avoidance reactions, group V: 58%
  % of avoidance reactions, group VI: 60%
[3]; [10]
  % of avoidance reactions, group I: 60%
  % of avoidance reactions, group II: 90%
  % of avoidance reactions, group III: 90%
  % of avoidance reactions, group IV: 89%
  % of avoidance reactions, group V: 90%
  % of avoidance reactions, group VI: 88%
[3]; [11]
  % of avoidance reactions, group I: 21%
  % of avoidance reactions, group II: 32%
  % of avoidance reactions, group III: 40%
  % of avoidance reactions, group IV: 50%
  % of avoidance reactions, group V: 51%
  % of avoidance reactions, group VI: 55%
[3]; [12]
  % of avoidance reactions, group I: 53%
  % of avoidance reactions, group II: 75%
  % of avoidance reactions, group III: 76%
  % of avoidance reactions, group IV: 76%
  % of avoidance reactions, group V: 74%
  % of avoidance reactions, group VI: 74%
[3]; per os 300 mg/kg, 1st day
  % of avoidance reactions, group I: 21%
  % of avoidance reactions, group II: 22%
  % of avoidance reactions, group III: 32%
  % of avoidance reactions, group IV: 42%
  % of avoidance reactions, group V: 43%
  % of avoidance reactions, group VI: 51%
[3]; [13]
  % of avoidance reactions, group I: 50%
  % of avoidance reactions, group II: 72%
  % of avoidance reactions, group III: 73%
  % of avoidance reactions, group IV: 78%
  % of avoidance reactions, group V: 77%
  % of avoidance reactions, group VI: 80%

## COc1ccc2c3c1O[C@H]1C[C@@H](O)C=C[C@@]31CCN(C)C2 [Galantamine]
[1]; hypodermally 3 mg/kg, control 0.26 ± 0.03
  Asymmetry factor, Preparation: 0.19 ± 0.03

## CNC(=O)Oc1ccc2c(c1)[C@]1(C)CCN(C)[C@@H]1N2C [Physostigmine, physostigmine]
[1]
  asymmetry factor (in words): did not change or reduced the factor of asymmetry
[1]; hypodermally 0.04 mg/kg, control 0.22 ± 0.01
  Asymmetry factor, Preparation: 0.11 ± 0.01
[3]; 0.03 mg/kg
  teaching of animals (in words): slightly improves
[3]; 0.1 mg/kg
  teaching of animals (in words): impairs teaching of animals
[3]; [14]
  % of avoidance reactions, group I: 20%
  % of avoidance reactions, group II: 21%
  % of avoidance reactions, group III: 26%
  % of avoidance reactions, group IV: 35%
  % of avoidance reactions, group V: 49%
  % of avoidance reactions, group VI: 57%
[3]; [15]
  % of avoidance reactions, group I: 50%
  % of avoidance reactions, group II: 80%
  % of avoidance reactions, group III: 83%
  % of avoidance reactions, group IV: 87%
  % of avoidance reactions, group V: 90%
  % of avoidance reactions, group VI: 89%
[3]; [16]
  % of avoidance reactions, group I: 18%
  % of avoidance reactions, group II: 4%
  % of avoidance reactions, group III: 7%
  % of avoidance reactions, group IV: 18%
  % of avoidance reactions, group V: 23%
  % of avoidance reactions, group VI: 38%
[3]; [17]
  % of avoidance reactions, group I: 39%
  % of avoidance reactions, group II: 60%
  % of avoidance reactions, group III: 70%
  % of avoidance reactions, group IV: 70%
  % of avoidance reactions, group V: 71%
  % of avoidance reactions, group VI: 70%
[4]; hypodermally 0.04 mg/kg
  Number of combinations to reach the "learning criterion" in II teaching series (after 7 days): 6.1 ± 0.9
  Number of combinations to reach the "learning criterion" in the I teaching series: 21.9 ± 2.5
  Number of non-taught animals in the group: 1/20
  Percentage knowledge retention: 72%
[5]; hypodermally 0.04 mg/kg
  % of knowledge retention: 10%
  Number of combinations till appearance of "learning criterion", I teaching: 46 ± 3.1
  Number of combinations till appearance of "learning criterion", II-checking of retention of knowledge: 31.4 ± 1.8
  Number of untaught animals in the group: 12/20
